Like-named read-outs stand apart in the source and are kept apart here.
What was measured:
[1] = Tissue concentrations of vinorelbine and deacetylvinorelbine 4 h after i.v. vinorelbine in CES2-modified mice; assay type: in vivo, mouse; conditions: male, mouse, intravenous, 10 mg/kg, i.v. vinorelbine 10 mg/kg
Procedure: (§1) For capecitabine 2-h experiments, 6–7 female mice received oral capecitabine (500 mg/kg, 10 μL/g), and tail vein blood samples were collected at 0.125, 0.25, 0.5 and 1 h after drug administration. For the vinorelbine 4-h experiment, 6-7 male mice received vinorelbine intravenously (10 mg/kg, 5 μL/g) or orally (10 mg/kg, 10 μL/g) using a blunt-ended needle. Tail vein blood samples were collected at 0.125, 0.25, 0.5, 1 and 2 h after drug administration. […] At the last time point in each experiment (2 or 4 h), mice were anesthetized with 5% isoflurane and blood was collected by cardiac puncture. […] Plasma was isolated from the blood by centrifugation at 9000 × g for 6 min at 4 °C, and the plasma fraction was collected and stored at −30 °C until analysis.
(§2) Concentrations of capecitabine (and its metabolites) and vinorelbine (and its metabolite) in mouse plasma samples and organ homogenates were determined using two independent validated high-performance liquid chromatography-tandem mass spectrometry assays.
(§3) Pharmacokinetic parameters were calculated by non-compartmental methods using the PK solver software. […] Differences were considered statistically significant when P < 0.05. All data are presented as mean ± SD.

[2] = Tissue concentrations of vinorelbine and deacetylvinorelbine 4 h after oral vinorelbine in CES2-modified mice; assay type: in vivo, mouse; conditions: male, mouse, oral, 10 mg/kg, oral vinorelbine 10 mg/kg
Procedure: as §1, §2, §3

[3] = Plasma pharmacokinetics of vinorelbine and deacetylvinorelbine after oral vinorelbine in CES2-modified mice; assay type: in vivo, mouse; conditions: mouse, plasma, oral vinorelbine 10 mg/kg, plasma; for AUC(0-t): male, po, 10 mg/kg, read-out: AUC0-4h; for Cmax: read-out: Cmax; for Tmax: read-out: Tmax
Procedure: as §1, §2, §3

[4] = set-up: method as in PMID 11822766; conditions: 24 patients; oral vinorelbine 80 mg/m^2; cited from earlier work
[5] = Plasma pharmacokinetics of vinorelbine and deacetylvinorelbine after i.v. vinorelbine in CES2-modified mice; conditions: male, mouse, plasma, iv, 10 mg/kg, AUC0-4h, i.v. vinorelbine 10 mg/kg
Procedure: In order to minimize variation among individuals, mice were fasted for 3 h before drug was administered orally or intravenously. […] For the vinorelbine 4-h experiment, 6-7 male mice received vinorelbine intravenously (10 mg/kg, 5 μL/g) or orally (10 mg/kg, 10 μL/g) using a blunt-ended needle. […] Time points of termination were chosen to allow both reasonable assessment of the plasma exposure of the compound and its main metabolites, and adequate measurement of tissue concentrations. In order to minimize the generation and use of mice, and as no pronounced sex differences were expected, female mice were used for the capecitabine studies and male mice for the vinorelbine studies. Tail vein blood sample collection (~50 μL) was performed using microvettes containing dipotassium-EDTA. All blood samples were rapidly placed on ice to limit any ongoing hydrolysis. At the last time point in each experiment (2 or 4 h), mice were anesthetized with 5% isoflurane and blood was collected by cardiac puncture. Cardiac puncture blood samples (600–800 μL) were collected in Eppendorf tubes containing heparin as an anticoagulant. The mice were then sacrificed by cervical dislocation and brain, liver, kidney, lung, small intestine and testis were rapidly removed. Plasma was isolated from the blood by centrifugation at 9000 × g for 6 min at 4 °C, and the plasma fraction was collected and stored at −30 °C until analysis. Organs were homogenized with 4% (w/v) bovine serum albumin and stored at −30 °C until analysis. Relative metabolite-to-parental drug ratio after drug administration was calculated by determining metabolite tissue concentration relative to corresponding parental drug concentration at the last time point.
as §2
Pharmacokinetic parameters were calculated by non-compartmental methods using the PK solver software. The area under the plasma concentration-time curve (AUC) was calculated using the trapezoidal rule, without extrapolating to infinity. The peak plasma concentration (Cmax) and the time of maximum plasma concentration (Tmax) were estimated from the original (individual mouse) data. One-way analysis of variance (ANOVA) was used when multiple groups were compared and the Tukey’s test post hoc correction was used to accommodate multiple testing. The two-sided unpaired Student’s t-test was used when treatments or differences between two specific groups were compared. Kruskal-Wallis rank test was used for semi-quantitative assessment for (H&E)-staining of white adipose tissue and Oil Red O-staining of liver. All statistical analyses were performed using the software GraphPad Prism 8 (GraphPad Software Inc., La Jolla, CA, USA). All the linear data were log-transformed before statistical tests were applied. Differences were considered statistically significant when P < 0.05. All data are presented as mean ± SD.

[6] = colon, male Ces2^–/– mice, read-out: Ccolon (colon concentration)
[7] = colon, male Ces2^–/–A mice, read-out: Ccolon (colon concentration)
[8] = colon, male Ces2^–/–V mice, read-out: Ccolon (colon concentration)
[9] = colon, male wild-type mice, read-out: Ccolon (colon concentration)
[10] = liver, male Ces2^–/– mice, read-out: Cliver (liver concentration)
[11] = liver, male Ces2^–/–A mice, read-out: Cliver (liver concentration)
[12] = liver, male Ces2^–/–V mice, read-out: Cliver (liver concentration)
[13] = liver, male wild-type mice, read-out: Cliver (liver concentration)
[14] = small intestine contents, male Ces2^–/– mice, read-out: CSIC (small intestine contents concentration)
[15] = small intestine contents, male Ces2^–/–A mice, read-out: CSIC (small intestine contents concentration)
[16] = small intestine contents, male Ces2^–/–V mice, read-out: CSIC (small intestine contents concentration)
[17] = small intestine contents, male wild-type mice, read-out: CSIC (small intestine contents concentration)
[18] = small intestine tissue, male Ces2^–/– mice, read-out: CSI (small intestine tissue concentration)
[19] = small intestine tissue, male Ces2^–/–A mice, read-out: CSI (small intestine tissue concentration)
[20] = small intestine tissue, male Ces2^–/–V mice, read-out: CSI (small intestine tissue concentration)
[21] = small intestine tissue, male wild-type mice, read-out: CSI (small intestine tissue concentration)

With CCC1=C[C@@H]2CN(C1)Cc1c([nH]c3ccccc13)[C@@](C(=O)OC)(c1cc3c(cc1OC)N(C)[C@H]1[C@@](O)(C(=O)OC)[C@H](OC(C)=O)[C@]4(CC)C=CCN5CC[C@]31[C@@H]54)C2 [Vinorelbine, reference compound] as the compound, how does the concentration at 4 h [1, 6] read?
The concentration at 4 h was 5620 ± 3000 ng/g.

What about the concentration at 4 h [1, 7] of the same compound?
The concentration at 4 h was 5780 ± 3090 ng/g.

And the concentration at 4 h [1, 8]?
The concentration at 4 h was 6740 ± 1470 ng/g.

What about the concentration at 4 h [1, 9] of the same compound?
Its concentration at 4 h is 2360 ± 692 ng/g.

And the concentration at 4 h [1, 10]?
The concentration at 4 h was 23400 ± 6110 ng/g.

What about the concentration at 4 h [1, 11] of the same compound?
Its concentration at 4 h is 24300 ± 3720 ng/g.

What about the concentration at 4 h [1, 12] of the same compound?
Its concentration at 4 h is 24700 ± 4450 ng/g.

And the concentration at 4 h [1, 13]?
The concentration at 4 h was 12200 ± 4960 ng/g.

What about the concentration at 4 h [1, 14] of the same compound?
Its concentration at 4 h is 40100 ± 25500 ng/g.

What about the concentration at 4 h [1, 15] of the same compound?
Its concentration at 4 h is 47200 ± 30900 ng/g.

What about the concentration at 4 h [1, 16] of the same compound?
Its concentration at 4 h is 48400 ± 27000 ng/g.

And the concentration at 4 h [1, 17]?
Its concentration at 4 h is 27700 ± 13400 ng/g.

And the concentration at 4 h [1, 18]?
The concentration at 4 h was 5920 ± 1350 ng/g.

What about the concentration at 4 h [1, 19] of the same compound?
The concentration at 4 h was 5600 ± 644 ng/g.

And the concentration at 4 h [1, 20]?
Its concentration at 4 h is 7680 ± 2240 ng/g.

And the concentration at 4 h [1, 21]?
Its concentration at 4 h is 3470 ± 858 ng/g.

And the concentration at 4 h [2, 6]?
The concentration at 4 h was 581 ± 175 ng/g.

What about the concentration at 4 h [2, 7] of the same compound?
The concentration at 4 h was 788 ± 189 ng/g.

And the concentration at 4 h [2, 8]?
Its concentration at 4 h is 608 ± 203 ng/g.

And the concentration at 4 h [2, 9]?
Its concentration at 4 h is 348 ± 136 ng/g.

What about the concentration at 4 h [2, 10] of the same compound?
The concentration at 4 h was 8470 ± 8150 ng/g.

And the concentration at 4 h [2, 11]?
The concentration at 4 h was 8520 ± 3440 ng/g.

What about the concentration at 4 h [2, 12] of the same compound?
Its concentration at 4 h is 8300 ± 2000 ng/g.

What about the concentration at 4 h [2, 13] of the same compound?
Its concentration at 4 h is 1530 ± 409 ng/g.

What about the concentration at 4 h [2, 14] of the same compound?
The concentration at 4 h was 159000 ± 46700 ng/g.

What about the concentration at 4 h [2, 15] of the same compound?
The concentration at 4 h was 177000 ± 73000 ng/g.

What about the concentration at 4 h [2, 16] of the same compound?
The concentration at 4 h was 114000 ± 19400 ng/g.

And the concentration at 4 h [2, 17]?
The concentration at 4 h was 77000 ± 29300 ng/g.

What about the concentration at 4 h [2, 18] of the same compound?
The concentration at 4 h was 18300 ± 4300 ng/g.

What about the concentration at 4 h [2, 19] of the same compound?
Its concentration at 4 h is 18100 ± 3650 ng/g.

And the concentration at 4 h [2, 20]?
The concentration at 4 h was 15600 ± 6980 ng/g.

What about the concentration at 4 h [2, 21] of the same compound?
The concentration at 4 h was 10800 ± 3700 ng/g.

And the AUC(0-t) ([3]; male Ces2^–/– mice)?
The AUC(0-t) was 491 ± 135 ng·h/mL.

And the AUC(0-t) ([3]; male Ces2^–/–A mice)?
Its AUC(0-t) is 730 ± 270 ng·h/mL.

What about the AUC(0-t) ([3]; male Ces2^–/–V mice) of the same compound?
Its AUC(0-t) is 585 ± 186 ng·h/mL.

What about the AUC(0-t) ([3]; male wild-type mice) of the same compound?
The AUC(0-t) was 362 ± 81 ng·h/mL.

And the Cmax ([3]; male Ces2^–/– mice)?
The Cmax was 188 ± 63 ng/mL.

What about the Tmax ([3]; male Ces2^–/– mice) of the same compound?
Its Tmax is 1.9 ± 1.9 h.

What about the Cmax ([3]; male Ces2^–/–A mice) of the same compound?
Its Cmax is 333 ± 99 ng/mL.

What about the Tmax ([3]; male Ces2^–/–A mice) of the same compound?
The Tmax was 1.3 ± 0.9 h.

And the Cmax ([3]; male Ces2^–/–V mice)?
Its Cmax is 243 ± 110 ng/mL.

What about the Tmax ([3]; male Ces2^–/–V mice) of the same compound?
The Tmax was 2.4 ± 1.5 h.

What about the Cmax ([3]; male wild-type mice) of the same compound?
Its Cmax is 149 ± 59 ng/mL.

What about the Tmax ([3]; male wild-type mice) of the same compound?
The Tmax was 1.7 ± 0.7 h.

What about the “plasma Cmax” value [4] of the same compound?
The value was 133.4 ± 42.3 ng/mL.

What about the AUC(0-t) ([5]; male Ces2^–/– mice) of the same compound?
Its AUC(0-t) is 6040 ± 1950 ng·h/mL.

And the AUC(0-t) ([5]; male Ces2^–/–A mice)?
The AUC(0-t) was 5950 ± 3250 ng·h/mL.

And the AUC(0-t) ([5]; male Ces2^–/–V mice)?
The AUC(0-t) was 9790 ± 5670 ng·h/mL.

And the AUC(0-t) ([5]; male wild-type mice)?
The AUC(0-t) was 8140 ± 4780 ng·h/mL.

From paper PMC11845761, “Intestinal human carboxylesterase 2 (CES2) expression rescues drug metabolism and most metabolic syndrome phenotypes in global Ces2 cluster knockout mice” (Acta Pharmacologica Sinica, 2024)
